Values of other authors as cited in EP0731703B1, “LIPOSOMAL FORMULATIONS CONTAINING VIDARABINE OR ITS DERIVATIVES” (INSTITUTO NACIONAL DE ENGENHARIA E TECNOLOGIA …, priority 1993, dated 1995).

Conditions: literature (Schabel 1968; LePage et al. 1972)

SMILES	aqueous solubility
Nc1ncnc2c1ncn2[C@@H]1O[C@H](CO)[C@@H](O)[C@@H]1O [ARA-A, 9-β-D-arabinofuranosyladenine]	poor aqueous solubility
Nc1ncnc2c1ncn2[C@@H]1O[C@H](COP(=O)(O)O)[C@@H](O)[C@@H]1O [ARA-AMP, 9-β-D--arabinofuranosyladenine monophosphate]	water-soluble
